Experimental data: PMC4165007 (The Indian Journal of Medical Research, 2014)

Legend:
[1] = cited from earlier work
[2] = sublingual; cited from earlier work
[3] = system: purified chymotrypsin; assay: Incubation with purified chymotrypsin; assay type: in vitro ADME; conditions: data not shown
[4] = target: pepsin (Sus scrofa, UniProt P00791); assay: Digestion with simulated gastric fluid; assay type: in vitro ADME; conditions: SGF pepsin, gastric pH, data not shown
[5] = cited from earlier work; remark: listed apart in the source
[6] = oral; cited from earlier work

Sequence of pepsin (P00791 60-385): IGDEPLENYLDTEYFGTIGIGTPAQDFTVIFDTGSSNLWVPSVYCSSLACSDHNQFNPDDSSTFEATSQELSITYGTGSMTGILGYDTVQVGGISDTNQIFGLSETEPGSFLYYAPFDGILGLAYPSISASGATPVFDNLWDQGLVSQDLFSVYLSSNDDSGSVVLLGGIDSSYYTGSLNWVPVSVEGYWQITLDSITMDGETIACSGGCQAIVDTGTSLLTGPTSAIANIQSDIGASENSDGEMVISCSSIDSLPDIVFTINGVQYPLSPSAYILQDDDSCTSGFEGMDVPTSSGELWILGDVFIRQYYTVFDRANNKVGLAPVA

| Molecule | stability during digestion with human gastric juice [1] | bioavailability, given sublingually in humans [2] | effect of incubation with purified chymotrypsin [3] | OT hydrolysis on increasing the peptic digestion time to 12 h [4] | half-life of injected OT in the plasma [5] [min] | bioavailability, given orally to pigs [6] |
| --- | --- | --- | --- | --- | --- | --- |
| arginine-vasopressin | stable |  |  |  |  |  |
| CC[C@H](C)[C@@H]1NC(=O)[C@H](Cc2ccc(O)cc2)NC(=O)[C@@H](N)CSSC[C@@H](C(=O)N2CCC[C@H]2C(=O)N[C@@H](CC(C)C)C(=O)NCC(N)=O)NC(=O)[C@H](CC(N)=O)NC(=O)[C@H](CCC(N)=O)NC1=O [OT, Oxytocin] | stable | very poor | led to its hydrolysis | did not result in OT hydrolysis | 5 to 7 | very poor |
